{"source": "patent US5559144A", "about": "“Furyl and thienyl alkynyl-N-hydroxy urea derivatives” (Abbott Laboratories, priority 1995, dated 1996)"}
{"molecular_target": "T1, 5-Lipoxygenase from RBL-1 20,000xg Supernatant (Rattus norvegicus, UniProt P12527)", "T1 construct": "20,000 xg supernatant from 1.5 million homogenized RBL-1 cells; endogenous in cells; host or cells: RBL-1 cells (20,000 xg supernatant of homogenate)", "T1 sequence (P12527 1-673)": "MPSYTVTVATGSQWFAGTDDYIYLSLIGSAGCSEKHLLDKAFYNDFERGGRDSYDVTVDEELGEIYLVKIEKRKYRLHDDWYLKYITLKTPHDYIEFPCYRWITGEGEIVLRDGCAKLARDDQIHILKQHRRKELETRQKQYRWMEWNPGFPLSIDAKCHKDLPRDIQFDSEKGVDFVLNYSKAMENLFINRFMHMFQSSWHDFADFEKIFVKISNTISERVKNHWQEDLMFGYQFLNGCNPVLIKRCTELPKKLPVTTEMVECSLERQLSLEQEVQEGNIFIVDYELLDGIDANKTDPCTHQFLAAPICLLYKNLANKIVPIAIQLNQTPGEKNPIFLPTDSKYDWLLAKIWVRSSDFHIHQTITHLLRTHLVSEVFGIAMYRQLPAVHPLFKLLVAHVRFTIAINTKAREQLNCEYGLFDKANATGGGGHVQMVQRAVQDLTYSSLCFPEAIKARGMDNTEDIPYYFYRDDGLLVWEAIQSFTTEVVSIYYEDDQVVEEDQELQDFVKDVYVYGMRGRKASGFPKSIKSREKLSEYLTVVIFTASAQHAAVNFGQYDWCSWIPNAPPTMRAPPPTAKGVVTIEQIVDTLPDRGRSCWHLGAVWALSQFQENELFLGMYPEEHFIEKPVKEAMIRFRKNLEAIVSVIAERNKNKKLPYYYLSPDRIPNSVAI", "assay": "5-lipoxygenase inhibitory activity, 20,000 xg supernatant from homogenized RBL-1 cells", "assay_type": "biochemical", "conditions": "radiolabeled arachidonic acid, triplicate", "description": "Assays to determine 5-lipoxygenase inhibitory activity of representative compounds of the present invention were performed in […] incubations containing the 20,000 xg supernatant from 1.5 million homogenized RBL-1 cells and various concentrations of the test compound. Reactions were initiated by addition of radiolabeled arachidonic acid and terminated by acidification and ether extraction. Reaction products were separated from nonconverted substrate by thin layer chromatography and measured by liquid scintillation spectroscopy. All incubations are performed in triplicate. Inhibition of 5-lipoxygenase activity was calculated as the ratio of the amount of product formed in the presence and absence of inhibitor. […] (Dyer, R. D.; Haviv, F.; Hanel, A. M.; Bornemier, D. A.; Carter, G. W. Fed. Proc., Fed. Am. Soc. Exp. Biol. 1984, 43, 1462A).", "units": {"IC50": "nM"}}
{"smiles": "CCc1ccc(C#CC(C)N(O)C(N)=O)cc1", "note": "(stereo not drawn) [Example 24, N-Hydroxy-N-[4-(4-ethylphenyl)-3-butyn-2-yl]urea]", "IC50": 300}
{"smiles": "CC(C)c1ccc(C#CC(C)N(O)C(N)=O)cc1", "note": "(stereo not drawn) [Example 22, N-Hydroxy-N-[4-[4-(1-methylethyl)phenyl]-3-butyn-2-yl]urea]", "IC50": 400}
{"smiles": "CC(C#CCCc1ccccc1)N(O)C(N)=O", "note": "(stereo not drawn) [Example 26, N-Hydroxy-N-(6-phenyl-3-hexyn-2-yl)urea]", "IC50": 900}
{"smiles": "COc1ccc(Oc2cccc(C#CCN(O)C(N)=O)c2)cc1", "note": "[Example 39]", "IC50": 600}
{"smiles": "Cc1ccc(Oc2cccc(C#CC(C)N(O)C(N)=O)c2)cc1", "note": "(stereo not drawn) [Example 35, N-Hydroxy-N-[4-[3-(4-methylphenoxy)phenyl]-3-butyn-2-yl]urea]", "IC50": 400}
{"smiles": "CC(C#Cc1ccc(Oc2ccccc2)cc1)N(O)C(N)=O", "note": "(stereo not drawn) [Example 12, N-Hydroxy-N[4-(4-phenoxyphenyl)-3-butyn-2-yl]urea]", "IC50": 300}
{"smiles": "CCc1ccc(C#CC(C)N(O)C(=O)NC)cc1", "note": "(stereo not drawn) [Example 25, N-Hydroxy-N-[4-(4-ethylphenyl)-3-butyn-2-yl]-N'-methylurea]", "IC50": 400}
{"smiles": "CC(C#Cc1cccc(Oc2ccccc2)c1)N(O)C(N)=O", "note": "(stereo not drawn) [Example 3, N-Hydroxy-N-[4-(3-phenoxyphenyl)-3-butyn-2-yl]urea]", "IC50": 100}
{"smiles": "CC(C#CCCc1cccc(Oc2ccccn2)c1)N(O)C(N)=O", "note": "(stereo not drawn) [Example 55, N-Hydroxy-N-[6-[3-(2-pyridinyloxy)phenyl]-3-hexyn-2-yl,1]-urea]", "IC50": 900}
{"smiles": "CC(C#Cc1ccc(OCc2ccccc2)cc1)N(O)C(N)=O", "note": "(stereo not drawn) [Example 7, N-Hydroxy-N-[4-(4-benzyloxyphenyl)-3-butyn-2-yl]urea]", "IC50": 130}
{"smiles": "CC(C#Cc1ccc(Oc2ccc(F)cc2)o1)N(O)C(N)=O", "note": "(stereo not drawn) [Example 57, N-hydroxy-N-{4-[5-(4-fluorophenoxy)-2-furyl]-3-butyn-2-yl}urea]", "IC50": 200}
{"smiles": "CC(C#Cc1cc2ccccc2s1)N(O)C(N)=O", "note": "(stereo not drawn) [Example 16, N-Hydroxy-N-[4-(2-benzo[b]thienyl)-3-butyn-2-yl]urea]", "IC50": 100}
{"smiles": "CCCCc1ccc(C#CC(C)N(O)C(N)=O)s1", "note": "(stereo not drawn) [Example 13, N-Hydroxy-N-[4-(5-butylthien-2-yl)-3-butyn-2-yl]urea]", "IC50": 300}
{"smiles": "NC(=O)N(O)CC#CCOc1ccccc1", "note": "[Example 41, N-Hydroxy-N-(4-phenoxy-2-butynyl)urea]", "IC50": 3500}
{"smiles": "CC(C#Cc1ccccc1)N(O)C(N)=O", "note": "(stereo not drawn) [Example 1, N-Hydroxy-N(4-phenyl-3-butyn-2-yl)urea]", "IC50": 2400}
{"smiles": "COc1ccc(Oc2cccc(C#CC(C)N(O)C(N)=O)c2)cc1", "note": "(stereo not drawn) [Example 40, N-Hydroxy-N-[4-[3-(4-methoxyphenoxy)phenyl]-3-butyn-2-yl]urea]", "IC50": 500}
{"smiles": "CC(C#CCc1ccccc1)N(O)C(N)=O", "note": "(stereo not drawn) [Example 30, N-Hydroxy-N-(5-phenyl-3-pentyn-2-yl)urea]", "IC50": 2100}
{"smiles": "CNC(=O)N(O)C(C)C#Cc1ccc(C(C)C)cc1", "note": "(stereo not drawn) [Example 23, N-Hydroxy-N-[4-[4-(1-methylethyl)phenyl]-3-butyn-2-yl]-N'-methylurea]", "IC50": 500}
{"smiles": "CNC(=O)N(O)C(C)C#Cc1ccc(C)cc1", "note": "(stereo not drawn) [Example 29, N-Hydroxy-N-[4-(4-methylphenyl)-3-butyn-2-yl]-N'-methylurea]", "IC50": 800}
{"smiles": "CC(C#Cc1cccc(Oc2ccc(Cl)cc2)c1)N(O)C(N)=O", "note": "(stereo not drawn) [Example 42, N-Hydroxy-N-[4-[3-(4-chlorophenoxy)phenyl]-3-butyn-2-yl]urea]", "IC50": 500}
{"smiles": "CNC(=O)N(O)C(C)C#Cc1ccccc1", "note": "(stereo not drawn) [Example 15, N-Hydroxy-N-(4-phenyl-3-butyn-2-yl)-N'-methylurea]", "IC50": 3300}
{"smiles": "CNC(=O)N(O)C(C)C#Cc1cccc(Oc2ccccn2)c1", "note": "(stereo not drawn) [Example 56, N-Hydroxy-N-[4-[3-(2-pyridinyloxy)phenyl]-3-butyn-2-yl]-N'-methylurea]", "IC50": 300}
{"smiles": "CNC(=O)N(O)C(C)C#CCCc1ccccc1", "note": "(stereo not drawn) [Example 27, N-Hydroxy-N-(6-phenyl-3-hexyn-2-yl)-N'-methylurea]", "IC50": 700}
{"smiles": "CC(C#CCOc1cccc(Oc2ccccc2)c1)N(O)C(N)=O", "note": "(stereo not drawn) [Example 45, N-Hydroxy-N-[5-(3-phenoxyphenoxy)-3-pentyn-2-yl]urea]", "IC50": 200}
{"smiles": "CC(C#Cc1ccco1)N(O)C(N)=O", "note": "(stereo not drawn) [Example 31, N-Hydroxy-N-[4-(2-furyl)-3-butyn-2-yl]urea]", "IC50": 6200}
{"smiles": "CC(C#CCN(C)Cc1ccccc1)N(O)C(N)=O", "note": "(stereo not drawn) [Example 5, N-Hydroxy-N-[5-[(N-methyl-N-benzyl)amino]-3-pentyn,2-yl]urea]", "IC50": 3600}
{"smiles": "CC(C#Cc1cccc(OCc2ccccc2)c1)N(O)C(N)=O", "note": "(stereo not drawn) [Example 6, N-Hydroxy-N-[4-(3-benzyloxyphenyl)-3-butyn-2-yl]urea]", "IC50": 200}
{"smiles": "Cc1ccc(C#CC(C)N(O)C(N)=O)cc1", "note": "(stereo not drawn) [Example 28, N-Hydroxy-N-[4-(4-methylphenyl)-3-butyn-2-yl]urea]", "IC50": 1400}
{"smiles": "Cc1ccc(C#CC(C)N(O)C(N)=O)s1", "note": "(stereo not drawn) [Example 14, N-Hydroxy-N-[4-(5,methylthien-2-yl)-3-butyn-2-y]urea]", "IC50": 1700}
{"smiles": "COc1ccc(C#CC(C)N(O)C(N)=O)cc1", "note": "(stereo not drawn) [Example 37, N-Hydroxy-N-[4-(4-methoxyphenyl)-3-butyn-2-yl]urea]", "IC50": 2000}
{"smiles": "CC(C#CC1=CCCCC1)N(O)C(N)=O", "note": "(stereo not drawn) [Example 9, N-Hydroxy-N-(4-cyclohexen-1-yl-3butyn-2-yl)urea]", "IC50": 1200}
{"smiles": "CNC(=O)N(O)C(C)C#Cc1ccc(Br)cc1", "note": "(stereo not drawn) [Example 18, N-Hydroxy-N-[4-(4-bromophenyl)-3-butyn-2-yl]-N'-methylurea]", "IC50": 500}
{"smiles": "COc1cccc(Oc2cccc(C#CC(C)N(O)C(N)=O)c2)n1", "note": "(stereo not drawn) [Example 65, N-Hydroxy-N-[4-[3-(6-methoxypyridin-2-yloxy)phenyl]-3-butyn-2-yl]urea]", "IC50": 200}
{"test_system": "Leukotrienes (biosynthesis)", "assay": "Inhibition of leukotriene biosynthesis in vivo after oral administration, rat peritoneal anaphylaxis model", "conditions": "1 h, Oral Dose at 30 μmol/kg, gavage one hour prior to antigen challenge, read-out: Percent Inhibition of Leukotrienes", "description": "(§1) Inhibition of the biosynthesis of leuktrienes in vivo after oral administration of compound was determined using a rat peritoneal anaphylaxis model in a similar manner as that described by Young and coworkers (Young, P. R.; Dyer, R. D.; Carter, G. W. Fed. Proc., Fed. Am. Soc. Exp. Biol. 1985, 44, 1185). In this model rats were injected intraperitoneally (ip) with rabbit antibody to bovine serum albumin (BSA) and three hours later injected ip with BSA to induce an antgen-antibody response. Rats were sacrificed 15 minutes after this challenge and the peritoneal fluids were collected and analyzed for leukotriene levels. Test compounds were administered by gavage one hour prior to the antigen challenge. Percent inhibition values were determined by comparing the treatment group to the mean of the control group.", "units": {"inhibition in vivo at 30 µmol/kg": "%"}}
{"smiles": "CC(C#Cc1ccc(Oc2ccc(F)cc2)o1)N(O)C(N)=O", "note": "(stereo not drawn) [Example 57, N-hydroxy-N-{4-[5-(4-fluorophenoxy)-2-furyl]-3-butyn-2-yl}urea]", "inhibition in vivo at 30 µmol/kg": 83}
{"smiles": "NC(=O)N(O)CC#Cc1cccc(Oc2ccccn2)c1", "note": "[Example 63, N-Hydoxy-N-[3-[3-(2-pyridinyloxy)phenyl]-2-propyn-1-yl]urea]", "inhibition in vivo at 30 µmol/kg": 85}
{"smiles": "NC(=O)N(O)CC#Cc1ccc(Oc2ccc(F)cc2)o1", "note": "[Example 60, N-hydroxy-N-{3-[5-(4-fluorophenoxy)-2-furyl]-2-propynyl}urea]", "inhibition in vivo at 30 µmol/kg": 70}
{"smiles": "NC(=O)N(O)CC#Cc1cccc(Oc2cccnc2)c1", "note": "[Example 54, N-Hydroxy-N-[3-[3-(3-pyridinyloxy)phenyl]-2-propyn-1-yl]urea]", "inhibition in vivo at 30 µmol/kg": 78}
{"test_system": "Leukotrienes (biosynthesis)", "assay": "Inhibition of leukotriene biosynthesis in vivo after oral administration, rat peritoneal anaphylaxis model", "conditions": "1 h, Oral Dose at 100 μmol/kg, gavage one hour prior to antigen challenge, read-out: Percent Inhibition of Leukotrienes", "description": "as §1", "units": {"inhibition in vivo at 100 µmol/kg": "%"}}
{"smiles": "CC(C)c1ccc(C#CC(C)N(O)C(N)=O)cc1", "note": "(stereo not drawn) [Example 22, N-Hydroxy-N-[4-[4-(1-methylethyl)phenyl]-3-butyn-2-yl]urea]", "inhibition in vivo at 100 µmol/kg": 86}
{"smiles": "CC(C#CCCc1ccccc1)N(O)C(N)=O", "note": "(stereo not drawn) [Example 26, N-Hydroxy-N-(6-phenyl-3-hexyn-2-yl)urea]", "inhibition in vivo at 100 µmol/kg": 78}
{"smiles": "COc1ccc(Oc2cccc(C#CCN(O)C(N)=O)c2)cc1", "note": "[Example 39]", "inhibition in vivo at 100 µmol/kg": 96}
{"smiles": "CCc1ccc(C#CC(C)N(O)C(=O)NC)cc1", "note": "(stereo not drawn) [Example 25, N-Hydroxy-N-[4-(4-ethylphenyl)-3-butyn-2-yl]-N'-methylurea]", "inhibition in vivo at 100 µmol/kg": 69}
{"smiles": "NC(=O)N(O)CC#CCOc1cccc(Oc2cccnc2)c1", "note": "[Example 49]", "inhibition in vivo at 100 µmol/kg": 98}
{"smiles": "CC(C#CCc1ccccc1)N(O)C(N)=O", "note": "(stereo not drawn) [Example 30, N-Hydroxy-N-(5-phenyl-3-pentyn-2-yl)urea]", "inhibition in vivo at 100 µmol/kg": 95}
{"smiles": "CC(C#Cc1cccc(Oc2ccc(Cl)cc2)c1)N(O)C(N)=O", "note": "(stereo not drawn) [Example 42, N-Hydroxy-N-[4-[3-(4-chlorophenoxy)phenyl]-3-butyn-2-yl]urea]", "inhibition in vivo at 100 µmol/kg": 66}
{"smiles": "NC(=O)N(O)CC#CCOc1cccc(Oc2ccccc2)c1", "note": "[Example 38, N-Hydroxy-N-[4-(3-phenoxyphenoxy)-2-butynyl]urea]", "inhibition in vivo at 100 µmol/kg": 100}
{"test_system": "Leukotrienes (biosynthesis)", "assay": "Inhibition of leukotriene biosynthesis in vivo after oral administration, rat peritoneal anaphylaxis model", "conditions": "1 h, Oral Dose at 200 μmol/kg, gavage one hour prior to antigen challenge, read-out: Percent Inhibition of Leukotrienes", "description": "as §1", "units": {"inhibition in vivo at 200 µmol/kg": "%"}}
{"smiles": "CC(C#CCOc1ccccc1)N(O)C(N)=O", "note": "(stereo not drawn) [Example 10, N-Hydroxy-N-(5-phenoxy-3-pentyn-2-yl)urea]", "inhibition in vivo at 200 µmol/kg": 99}
{"smiles": "CC(C#Cc1ccccc1)N(O)C(N)=O", "note": "(stereo not drawn) [Example 1, N-Hydroxy-N(4-phenyl-3-butyn-2-yl)urea]", "inhibition in vivo at 200 µmol/kg": 98}
{"smiles": "COc1ccc2cc(C#CC(C)N(O)C(N)=O)ccc2c1", "note": "(stereo not drawn) [Example 2, N-Hydroxy-N-[4-(6-methoxynaphth-2-yl)-3-butyn-2-yl]urea]", "inhibition in vivo at 200 µmol/kg": 66}
